For the test, the target named is T1, SARM1 (ARM-SAM-TIR, full length SARM1) (Homo sapiens, UniProt Q6SZW1).
T1 sequence (Q6SZW1 with tags, fused parts or gaps): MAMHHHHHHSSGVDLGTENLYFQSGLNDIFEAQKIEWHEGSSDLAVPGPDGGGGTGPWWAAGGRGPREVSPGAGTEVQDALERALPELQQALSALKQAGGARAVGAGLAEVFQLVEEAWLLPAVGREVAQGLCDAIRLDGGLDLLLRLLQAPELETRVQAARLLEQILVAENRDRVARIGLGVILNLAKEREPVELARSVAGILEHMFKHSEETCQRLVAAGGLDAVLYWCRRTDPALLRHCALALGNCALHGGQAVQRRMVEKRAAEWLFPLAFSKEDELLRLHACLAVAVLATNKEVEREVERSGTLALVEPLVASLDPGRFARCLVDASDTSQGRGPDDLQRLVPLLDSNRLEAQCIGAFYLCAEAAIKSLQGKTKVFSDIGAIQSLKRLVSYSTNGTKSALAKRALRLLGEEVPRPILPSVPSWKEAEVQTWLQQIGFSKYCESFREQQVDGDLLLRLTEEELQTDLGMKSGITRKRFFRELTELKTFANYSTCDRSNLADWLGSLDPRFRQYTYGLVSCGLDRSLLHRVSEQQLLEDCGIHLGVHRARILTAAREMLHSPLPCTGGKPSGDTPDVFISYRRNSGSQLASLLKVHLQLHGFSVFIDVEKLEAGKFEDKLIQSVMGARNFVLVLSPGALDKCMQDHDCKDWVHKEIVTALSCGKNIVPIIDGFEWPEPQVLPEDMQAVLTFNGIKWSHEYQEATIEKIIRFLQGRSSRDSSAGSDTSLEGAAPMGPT
Description: biochemical. Particulars: SARM1 IC50 (nM), ARM-SAM-TIR lysate 5 μg/mL from NRK1-HEK293T cells, 2 h pre-incubation, 5 uM NAD+, 2 hr room temperature.

Some results are limits rather than exact numbers.

Description: This assay makes use of full length SARM1, which encompasses the ARM, SAM and TIR domains.
Preparation of ARM-SAM-TIR lysate (STL)
NRK1-HEK293T cells were seeded onto 150 cm^2 plates at 20×10^6 cells per plate. The next day, the cells were transfected with 15 g ARM-SAM-TIR expression plasmid, SEQ ID NO: 1.
The cultures were supplemented with 1 mM NR at time of transfection to minimize toxicity from ARM-SAM-TIR overexpression. Forty-eight hours after transfection, cells were harvested, pelleted by centrifugation at 1,000 rpm (Sorvall ST 16R centrifuge, Thermo Fisher), and washed once with cold PBS (0.01 M phosphate buffered saline NaCl 0.138 M; KCl 0.0027 M; pH 7.4). The cells were resuspended in PBS with protease inhibitors (cOmplete™ protease inhibitor cocktail, Roche product #11873580001) and cell lysates were prepared by sonication (Branson Sonifer 450, output=3, 20 episodes of stroke). The lysates were centrifuged (12,000×g for 10 min at 4° C.) to remove cell debris and the supernatants (containing ARM-SAM-TIR protein) were stored at −80° C. for later use in the in vitro ARM-SAM-TIR NADase assay (see below). Protein concentration was determined by the Bicinchoninic (BCA) method and used to normalize lysate concentrations.
ARM-SAM-TIR IC50 assay of Formula I compounds.
The enzymatic assay was performed in a 384-well polypropylene plate in Dulbecco's PBS buffer in a final assay volume of 20 μL. ARM-SAM-TIR lysate with a final concentration of 5 μg/mL was pre-incubated with the respective compound at 1% DMSO final assay concentration over 2h at room temperature. The reaction was initiated by addition of 5 uM final assay concentration of NAD+ as substrate. After a 2 hr room temperature incubation, the reaction was terminated with 40 μL of stop solution of 7.5% trichloroactetic acid in acetonitrile. The NAD+ and ADPR concentrations were analyzed by a RapidFire High Throughput Mass Spectrometry System (Agilent Technologies, Santa Clara, Calif.) using an API4000 triple quadrupole mass spectrometer (AB Sciex Framingham, Mass.).

In turn, `O=C1C(Cc2ccc(F)nc2)CCN1c1[nH]nc(-c2ccncc2)c1F` (centres unmarked) [Compound I-33] registered an IC50 below 50 nM.
The result for `O=C1C(Cc2ccc(Cl)nc2)CCCCN1c1cc(-c2ccncc2)n[nH]1` (single isomer, unassigned) [I-40* (peak 1)] reads above 1000 nM; that for `O=C1C(Cc2ccc(F)nc2)CCN1c1[nH]nc(-c2ccncc2)c1Cl` (single isomer, unassigned) [I-32* (peak 2)], below 50 nM; that for `O=C1C(Cc2ccc(Cl)nc2)CCN1c1cc(-c2ccncc2)n[nH]1` (centres unmarked) [Compound I-17], below 50 nM.
Consider `N[C@H]1CC(Cc2ccc(Cl)nc2)C(=O)N(c2cc(-c3ccncc3)n[nH]2)C1` (single isomer, unassigned) [I-60* (peak 2)], for which the IC50 fell in the range of 101 to 500 nM.
As for `O=C1C(Cc2cnc(Cl)c(F)c2)CCCN1c1nnc(-c2ccncc2)[nH]1` (centres unmarked) [Compound I-24], the figure is below 50 nM.
As for `CC1(Cc2ccc(F)c(F)c2)CCN(c2nc(-c3ccncc3)n[nH]2)C1=O` (centres unmarked) [Compound I-43], the figure is above 1000 nM; as for `Cc1c(-c2ccncc2)n[nH]c1N1CCC(Cc2ccc(Cl)nc2)C1=O` (single isomer, unassigned) [I-48* (peak 1)], 101 to 500 nM.
As for `O=C1C(Cc2ccc(Cl)nc2)CCCN1c1cc(-c2ccncc2)n[nH]1` (single isomer, unassigned) [I-21* (peak 1)], the figure is 101 to 500 nM.
Turning to `N[C@H]1CC(Cc2ccc(Cl)nc2)C(=O)N(c2nnc(-c3ccncc3)[nH]2)C1` (single isomer, unassigned) [Compound I-61], the concentration for half-maximal inhibition (IC50) is above 1000 nM.
The result for `O=C1C(Cc2ccc(Cl)nc2)CCCN1c1cc(-c2ccncc2)n[nH]1` (centres unmarked) [Compound I-21] reads below 50 nM.
The result for `O=C1C(Cc2ccc(F)nc2)CCN1c1nnc(-c2ccncc2)[nH]1` (centres unmarked) [Compound I-39] reads 101 to 500 nM; that for `N#Cc1cc(CC2CCCN(c3cc(-c4ccncc4)n[nH]3)C2=O)ccc1F` (centres unmarked) [Compound I-100], below 50 nM; that for `O=C1C(Cc2ccc(Cl)nc2)OCCN1c1nnc(-c2ccncc2)[nH]1` (centres unmarked) [Compound I-58], 101 to 500 nM.
As for `N#Cc1c(-c2ccncc2)n[nH]c1N1CCCC(Cc2ccc(Cl)cc2)C1=O` (centres unmarked) [Compound I-56], the figure is 101 to 500 nM; as for `O=C1C(Cc2ccc(Cl)nc2)CCCN1c1cc(-c2ccncc2)n[nH]1` (single isomer, unassigned) [I-21* (peak 2)], below 50 nM.
For the molecule `O=C1C(Cc2ccc(F)nc2)CCCN1c1[nH]nc(-c2ccncc2)c1F` (centres unmarked) [Compound I-27], the IC50 was 101 to 500 nM.
As for `O=C1C(Cc2ccc(Cl)nc2)CCCN1c1[nH]nc(-c2ccncc2)c1Cl` (centres unmarked) [Compound I-29], the figure is above 1000 nM; as for `N#Cc1ccc(CC2CCN(c3nc(-c4ccncc4)n[nH]3)C2=O)cc1` (centres unmarked) [Compound I-115], 501 to 1000 nM; as for `O=C1C(Cc2ccc(Cl)cc2)CCCN1c1nnc(-c2ccncc2)[nH]1` (single isomer, unassigned) [I-5* (peak 1)], below 50 nM.
For `[2H]C([2H])(c1ccc(Cl)nc1)C1([2H])C(=O)N(c2cc(-c3ccncc3)n[nH]2)C([2H])([2H])C([2H])([2H])C1([2H])[2H]` (single isomer, unassigned) [I-79* (peak 1)], the IC50 was below 50 nM.
Molecule `N#Cc1cc(CC2CCCN(c3nc(-c4ccncc4)n[nH]3)C2=O)ccc1F` (centres unmarked) [Compound I-101] yielded an IC50 of 101 to 500 nM.
As for `Cc1c(-c2ccncc2)n[nH]c1N1CCC(Cc2ccc(F)c(F)c2)C1=O` (centres unmarked) [Compound I-49], the figure is 51 to 100 nM.
As for `O=C1C(Cc2ccc(F)nc2)CCN1c1[nH]nc(-c2ccncc2)c1F` (single isomer, unassigned) [I-33* (peak 1)], the 50% inhibitory concentration (IC50) fell in the range of 51 to 100 nM.
As for `O=C1C(Cc2ccc(Cl)nc2)CCCN1c1[nH]nc(-c2ccncc2)c1F` (centres unmarked) [Compound I-31], the figure is 101 to 500 nM; as for `O=C1C(Cc2ccc(F)nc2)CCN1c1[nH]nc(-c2ccncc2)c1Cl` (single isomer, unassigned) [I-32* (peak 1)], 51 to 100 nM; as for `O=C1C(Cc2ccc(Cl)cc2)CCCN1c1nnc(-c2ccncc2)[nH]1` (centres unmarked) [Compound I-5], below 50 nM.
As for `O=C1C(Cc2ccc(F)nc2)CCN1c1cc(-c2ccncc2)n[nH]1` (centres unmarked) [Compound I-67], the figure is below 50 nM.
For `O=C1C(Cc2ccc(F)nc2)CCN1c1cc(-c2ccncc2)n[nH]1` (single isomer, unassigned) [I-67* (peak 2)], the IC50 was below 50 nM.
`O=C1C(Cc2cnc(Cl)c(F)c2)CCCN1c1cc(-c2ccncc2)n[nH]1` (centres unmarked) [Compound I-66]: the IC50 was below 50 nM.
Molecule `[2H]C([2H])(c1ccc(Cl)nc1)C1([2H])C(=O)N(c2cc(-c3ccncc3)n[nH]2)C([2H])([2H])C([2H])([2H])C1([2H])[2H]` (centres unmarked) [Compound I-79] registered an IC50 below 50 nM.
As for `O=C1C(Cc2cnc(Cl)c(F)c2)CCCN1c1cc(-c2ccncc2)n[nH]1` (single isomer, unassigned) [I-66* (peak 1)], the figure is below 50 nM; as for `Cc1c(-c2ccncc2)n[nH]c1N1CCN[C@@H](Cc2ccc(Cl)cc2)C1=O` [Compound I-3-a], above 1000 nM; as for `N#Cc1c(-c2ccncc2)n[nH]c1N1CCC(Cc2ccc(F)c(F)c2)C1=O` (centres unmarked) [Compound I-53], 51 to 100 nM.
The result for `O=C1C(Cc2ccc(C(F)(F)F)nc2)CCN1c1cc(-c2ccncc2)n[nH]1` (centres unmarked) [Compound I-112] reads 101 to 500 nM; that for `O=C1C(Cc2ccc(F)c(F)c2)CCN1c1nnc(-c2ccncc2)[nH]1` (single isomer, unassigned) [I-11* (peak 2)], 51 to 100 nM; that for `O=C1C(Cc2ccc(Cl)cc2)OCCN1c1cc(-c2ccncc2)n[nH]1` (single isomer, unassigned) [I-47* (peak 1)], 51 to 100 nM.
As for `N#Cc1ccc(CC2CCN(c3[nH]nc(-c4ccncc4)c3F)C2=O)cc1F` (single isomer, unassigned) [I-25* (peak 1)], the figure is 101 to 500 nM; as for `Cc1c(-c2ccncc2)n[nH]c1N1CCC(Cc2ccc(F)c(F)c2)C1=O` (single isomer, unassigned) [I-49* (peak 1)], 101 to 500 nM; as for `O=C1C(Cc2ccc(F)nc2)CCN1c1[nH]nc(-c2ccncc2)c1Cl` (centres unmarked) [Compound I-32], below 50 nM.
The molecule `O=C1C(Cc2cnc(Cl)c(F)c2)CCCN1c1cc(-c2ccncc2)n[nH]1` (single isomer, unassigned) [I-66* (peak 2)] had an IC50 of 101 to 500 nM.
The result for `Cc1c(N2CCC(Cc3ccc(Cl)cc3)C2=O)n[nH]c1-c1ccncc1` (single isomer, unassigned) [I-6* (peak 1)] reads 51 to 100 nM.
As for `Cc1c(-c2ccncc2)n[nH]c1N1CCC(Cc2cnc(Cl)c(F)c2)C1=O` (single isomer, unassigned) [I-41* (peak 1)], the figure is 101 to 500 nM; as for `O=C1C(Cc2ccc(Cl)nc2)CNN1c1cc(-c2ccncc2)n[nH]1` (centres unmarked) [Compound I-30], above 1000 nM; as for `O=C1C(Cc2ccc(Cl)c(F)c2)CCCN1c1nnc(-c2ccncc2)[nH]1` (centres unmarked) [Compound I-10], below 50 nM.
The result for `N#Cc1cc(CC2CCN(c3cc(-c4ccncc4)n[nH]3)C2=O)ccc1F` (centres unmarked) [Compound I-116] reads 101 to 500 nM.
For `CC1(Cc2ccc(Cl)nc2)CCCN(c2nnc(-c3ccncc3)[nH]2)C1=O` (centres unmarked) [Compound I-63], the IC50 was in the range of 501 to 1000 nM.

For orientation: IC50 means the midpoint of a concentration-inhibition curve.

Source of the values: US12043613B2, “Inhibitors of SARM1” (Disarm Therapeutics, Inc., priority 2020, dated 2024).
